Several values for one entry are separate records, joined by “and”; a condition that tells them apart may be missing. Equal values may be shown once.

These results are taken from patent US12507703B2, “Methods, devices and compositions for preserving human milk” (The Trustees of Princeton University, priority 2023, dated 2025).

In the assay the test system is lipase. In words: Lipase/lipolysis assay (EnzChek Lipase Substrate, quenched BODIPY-fatty acid conjugate) on stored human milk. On Lipase (RFU): test concentration or dose not given here.
For `CC1=CC(=O)CC(C)(C)C1=O` [Ketoisophorone], the “Lipase (RFU)” value is 818.3204 RFU and 1086.358 RFU. For `c1ccc(CSSCc2ccccc2)cc1` [Dibenzyl disulfide], the “Lipase (RFU)” value amounted to 1113.399 RFU. In the case of `CCCCCC1CCCC(=O)O1` (stereo not shown) [δ-Decalactone], the “Lipase (RFU)” value was 1070.795 RFU. Regarding `O=C(O)c1ccc2ccccc2n1` [Quinoline-2-carboxylic acid], the “Lipase (RFU)” value is reported as 994.8984 RFU. On to `CCOP(=O)(O)OCC` [Diethyl phosphate], for which the “Lipase (RFU)” value stood at 1033.984 RFU.

Turning to `COC(=O)C1=CO[C@@H](O[C@@H]2O[C@H](CO)[C@@H](O)[C@H](O)[C@H]2O)[C@@H]2[C@@H](C)CC(=O)[C@]12O` [Hastatoside], the “Lipase (RFU)” value was found to be 738.976 RFU.

As to `CC1=C(/C=C/C(C)=C/C=C/C(C)=C/C(=O)O)C(C)(C)CCC1=O` [all-trans-4-Oxoretinoic acid], the “Lipase (RFU)” value is on record as 984.8749 RFU.

Regarding `CC1=C(C)C(=O)C(CC[C@](C)(O)CCC[C@H](C)CCC[C@H](C)CCCC(C)C)=C(C)C1=O` [D-α-Tocopherylquinone], the “Lipase (RFU)” value is 598.2224 RFU. On the same count and under the same terms, the value for `NCC[C@H](N)C(=O)O` [L-DABA] was 650.1144 RFU; that for `COc1cc(/C=C/C(=O)NCCc2c[nH]c3ccc(O)cc23)ccc1O` [N-Feruloylserotonin] was 1060.876 RFU; that for Fucoidan from Macrocystis pyrifera was 384.150 RFU. Same read-out and setting: the value for `OC[C@@H](O)[C@@H](O[C@H]1O[C@H](CO)[C@@H](O)[C@H](O)[C@H]1O)[C@H](O)[C@@H](O)CO` [Maltitol] was 943.5543 RFU; that for `O=C1O[C@H](CO)[C@@H](O)[C@H]1O` [D-Ribonolactone] was 702.8507 RFU; that for `CC(C)=CCc1c(O)cc(O)c2c(=O)c(-c3ccc(O)cc3)coc12` [Lupiwighteone] was 1206.447 RFU. As for `N[C@H](CCC(=O)O)C(=O)O` [D-Glutamic Acid], the “Lipase (RFU)” value came out at 1176.72 RFU.

Regarding `O.O.OC[C@H]1O[C@H](O[C@H]2O[C@H](CO)[C@@H](O)[C@H](O)[C@H]2O)[C@H](O)[C@@H](O)[C@@H]1O` [D-(+)-Trehalose dihydrate], the “Lipase (RFU)” value is reported as 1045.976 RFU. Take `COc1ccc(-c2cc(=O)c3c(OC)cc(OC)c(OC)c3o2)cc1` [6-Demethoxytangeretin]: the “Lipase (RFU)” value is listed as 818.2248 RFU. In the case of `C[C@H]1CC[C@]2(NC1)O[C@H]1C[C@H]3[C@@H]4CC[C@H]5C[C@@H](O[C@@H]6O[C@H](CO)[C@H](O[C@@H]7O[C@H](CO)[C@@H](O)[C@H](O[C@@H]8OC[C@@H](O)[C@H](O)[C@H]8O)[C@H]7O[C@@H]7O[C@H](CO)[C@@H](O)[C@H](O)[C@H]7O)[C@H](O)[C@H]6O)CC[C@]5(C)[C@H]4CC[C@]3(C)[C@H]1[C@@H]2C` [Tomatine], the “Lipase (RFU)” value came to 635.5707 RFU.

Take `CC(C)=CCc1c(O)cc2oc3cc(O)c(O)c(CC=C(C)C)c3c(=O)c2c1O` [Gamma-Mangostin]: the “Lipase (RFU)” value is given as 1083.745 RFU. In the case of Adenine (hemisulfate), the “Lipase (RFU)” value was determined as 842.2125 RFU. As to Laminarin, the “Hit in lipase inhibition screen (in words)” value is recorded as “significantly inhibited lipase activity”; the “Lipase (RFU)” value was 336.7375 RFU and 594.197 RFU. For the compound `Nc1ccn([C@@H]2O[C@H](COP(=O)([O-])OP(=O)([O-])OP(=O)(O)O)[C@@H](O)[C@H]2O)c(=O)n1.[Na+].[Na+]` [Cytidine-5′-triphosphate (disodium)], the “Lipase (RFU)” value is reported as 1141.901 RFU. `C[C@]12CCC(=O)C=C1CC[C@@H]1[C@@H]2C(=O)C[C@@]2(C)[C@H]1CC[C@]2(O)C(=O)CO` [Cortisone]: the “Lipase (RFU)” value is on record as 1233.864 RFU. For `CC(=O)Oc1c(C)c(C)c2c(c1C)CCC(C)(CCC[C@H](C)CCC[C@H](C)CCCC(C)C)O2` (stereo partly drawn) [D-α-Tocopherol acetate], the “Lipase (RFU)” value was found to be 1194.717 RFU. For the compound `O=C(O)C(O)Cc1ccc(O)cc1` (stereo not shown) [Hydroxyphenyllactic acid], the “Lipase (RFU)” value came out at 914.2115 RFU. On to `C[C@H](CCC(=O)O)[C@H]1CC[C@H]2[C@@H]3[C@H](O)C[C@@H]4C[C@H](O)CC[C@]4(C)[C@H]3C[C@H](O)[C@]12C` [Cholic acid], for which the “Lipase (RFU)” value is 761.6522 RFU and 886.7213 RFU. As to `O=c1c(O[C@@H]2O[C@H](CO)[C@H](O)[C@H](O)[C@H]2O[C@@H]2O[C@H](CO)[C@@H](O)[C@H](O)[C@H]2O)c(-c2ccc(O)cc2)oc2cc(O)cc(O)c12` [Panasenoside], the “Lipase (RFU)” value worked out at 1093.409 RFU.

As to `O=C(O)c1cc(O)c2cccc(O)c2n1` [Xanthurenic acid], the “Lipase (RFU)” value was determined as 1023.37 RFU.

With Isoliquiritin apioside, the “Lipase (RFU)” value was found to be 821.8958 RFU.

For `COc1cc(O)c2c(=O)c(-c3ccc(O)cc3)coc2c1` [Prunetin], the “Lipase (RFU)” value turned out to be 865.5495 RFU. Consider `Oc1cc(O)c2c(c1)OC1(c3ccc(O)c(O)c3)Oc3cc(O)c4c(c3C2C1O)OC(c1ccc(O)c(O)c1)C(O)C4` (stereo not shown) [Procyanidin A1], for which the “Lipase (RFU)” value came to 1206.886 RFU. On to `O=C([O-])c1ccccc1O.[Na+]` [Sodium Salicylate], for which the “Lipase (RFU)” value is 847.8959 RFU and 820.8026 RFU. On to `O=C(/C=C/c1ccc(O)cc1)CC(=O)/C=C/c1ccc(O)cc1` [Bisdemethoxycucurmin], for which the “Lipase (RFU)” value is on record as 967.3982 RFU. On the same count and under the same terms, the value for `CCSCCC(N)C(=O)O` (racemic) [D,L-Ethionine] was 921.5463 RFU; that for `CC(C)(C(=O)O)C(=O)O` [Dimethylmalonic acid] was 890.7612 RFU; that for `NC(Cc1ccc(O)c(O)c1)C(=O)O` (racemic) [DL-Dopa] was 819.29 RFU. Turning to `OC[C@H]1NC[C@H](O)[C@@H](O)[C@@H]1O` [Compound 1-Deoxynojirimycin], the “Lipase (RFU)” value worked out at 1029.468 RFU. As to `C[C@H](CCC(=O)O)[C@H]1CC[C@H]2[C@@H]3C(=O)C[C@@H]4C[C@H](O)CC[C@]4(C)[C@H]3C[C@H](O)[C@]12C` [7-keto-Deoxycholic acid], the “Lipase (RFU)” value turned out to be 890.8412 RFU. For Phytol, the “Lipase (RFU)” value is 1207.906 RFU and 715.6019 RFU. On to `CC[C@H]1OC(=O)C[C@@H](O)[C@H](C)[C@@H](O[C@@H]2O[C@H](C)[C@@H](O[C@H]3C[C@@](C)(O)[C@@H](O)[C@H](C)O3)[C@H](N(C)C)[C@H]2O)[C@@H](CC=O)C[C@@H](C)C(=O)/C=C/C(C)=C/[C@@H]1CO[C@@H]1O[C@H](C)[C@@H](O)[C@@H](OC)[C@H]1OC` [Tylosin (phosphate)], for which the “Lipase (RFU)” value is 1132.19 RFU. Take `CC1(C)CC[C@]2(C(=O)O)CC[C@]3(C)C(=CC[C@@H]4[C@@]5(C)C[C@@H](O)[C@H](O)C(C)(C)[C@@H]5CC[C@]43C)[C@@H]2C1` [Maslinic acid]: the “Lipase (RFU)” value is given as 1120.923 RFU. Same read-out and setting: under `C=C(C[C@@H](O)[C@](C)(O)[C@H]1CC[C@@]2(O)C3=CC(=O)[C@@H]4C[C@@H](O)[C@@H](O)C[C@]4(C)[C@H]3CC[C@]12C)C(C)C` [Polyporusterone B] stands 1175.382 RFU; under `Oc1cc(O)c2ccc(-c3ccc(O)c(O)c3)[o+]c2c1.[Cl-]` [Luteolinidin (chloride)], 933.7809 RFU; under `CC1(C)[C@@H](O)CC[C@]2(C)[C@H]3C(=O)C=C4[C@@H]5C[C@@](C)(C(=O)O)CC[C@]5(C)CC[C@@]4(C)[C@]3(C)CC[C@@H]12` [18β-Glycyrrhetinic acid], 736.3555 RFU. Consider `O=C(CO)[C@@H](O)[C@H](O)[C@@H](O)CO` [(3S,4R,5S)-1,3,4,5,6-Pentahydroxyhexan-2-one], for which the “Lipase (RFU)” value is 1079.288 RFU and 1003.563 RFU. Regarding `O=c1cc(-c2ccc(O)cc2)oc2c([C@@H]3O[C@H](CO)[C@@H](O)[C@H](O)[C@H]3O)c(O)c([C@@H]3OC[C@@H](O)[C@H](O)[C@H]3O)c(O)c12` [Vicenin-1], the “Lipase (RFU)” value is recorded as 1046.904 RFU. Consider `CC(C)=CCc1c(O)cc2oc3cc(O)c(O)c(CCC(C)(C)O)c3c(=O)c2c1O` [Garcinone C], for which the “Lipase (RFU)” value is reported as 921.9256 RFU. On to Maltotriose, for which the “Lipase (RFU)” value is 917.8057 RFU and 1104.158 RFU. Same read-out and setting: under `O=C1O[C@H]([C@@H](O)CO)[C@H](O)[C@@H]1O` [L-Gulono-1,4-lactone] stands 1139.877 RFU; under `C[C@@H]1CC[C@@]2(NC1)O[C@H]1C[C@H]3[C@@H]4CC=C5C[C@@H](O)CC[C@]5(C)[C@H]4CC[C@]3(C)[C@H]1[C@@H]2C` [Solasodine], 1073.206 RFU.

As for Disodium succinate, the “Lipase (RFU)” value was 1168.659 RFU and 874.998 RFU.

On to `N[C@@H](Cc1ccc(O)c(Cl)c1)C(=O)O` [Compound 3-Chloro-L-tyrosine, 3-Chloro-L-tyrosine], for which the “Lipase (RFU)” value is reported as 1117.619 RFU. As for `COc1ccc(-c2cc(=O)c3c(O)cc(O[C@@H]4O[C@H](CO[C@@H]5O[C@@H](C)[C@H](O)[C@@H](O)[C@H]5O)[C@@H](O)[C@H](O)[C@H]4O)cc3o2)cc1` [Linarin], the “Lipase (RFU)” value is on record as 989.9197 RFU. `C[C@H]1CC[C@@H](C(C)(C)O)CC2=C1CC[C@@H]2C` [Guaiol]: the “Lipase (RFU)” value came to 919.8918 RFU. For the compound `CC(=O)c1ccc2c(c1)C=CC(C)(C)O2` [Demethoxyencecalin], the “Lipase (RFU)” value was found to be 1050.951 RFU. As for `COc1cc(COC(=O)CCCC/C=C/C(C)C)ccc1O` [Capsiate], the “Lipase (RFU)” value turned out to be 1078.823 RFU. As to `C[C@H](O)CO` [(S)-(+)-1,2-Propanediol], the “Lipase (RFU)” value is 1392.598 RFU. In the case of `COc1ccccc1OC` [1,2-Dimethoxybenzene], the “Lipase (RFU)” value is 1094.378 RFU and 752.9866 RFU. For the compound `OC1C(O)C(O)C(O)C(O)C1O` [D-chiro-Inositol], the “Lipase (RFU)” value amounted to 896.4132 RFU. For `C[C@@H]1O[C@@H](O[C@H]2[C@H](Oc3cc(O)c4c(c3)O[C@H](c3ccc(O)c(O)c3)CC4=O)O[C@H](CO)[C@@H](O)[C@@H]2O)[C@H](O)[C@H](O)[C@H]1O` [Neoeriocitrin], the “Lipase (RFU)” value is 1015.344 RFU.

For `O=P(O)(O)OC(CO)CO` [b-Glycerol Phosphate], the “Lipase (RFU)” value is given as 984.3562 RFU. As for `Cc1ccc(C(C)C)cc1O` [Carvacrol], the “Lipase (RFU)” value was 695.2525 RFU and 1199.593 RFU. Take `COc1cc(/C=C/CO)cc(OC)c1O[C@@H]1O[C@H](CO)[C@@H](O)[C@H](O)[C@H]1O` [Syringin]: the “Lipase (RFU)” value is recorded as 935.9617 RFU.
